“Also recorded” adds a separate entry of the source.
How the values were obtained:
HFL-1 cells [1] = test: Long term exposure of normal human fibroblasts, cell count; type: cell-based; settings: 2.5 or 5.0 μM for 48 or 72 hours, counted 96 hours after the incubation period
Procedure: Cells were exposed to either 2.5 or 5.0 μM of the styryl sulfone […] and counted.
HFL-1 cells were plated at a cell density of 1.0×10^5 per well 24 hours prior to drug addition. Cells were exposed to either 2.5 or 5.0 μM (E)-4-fluorostyryl-4-chlorobenzylsulfone for 48 or 72 hours. Cells were counted 96 hours after the incubation period.

HFL-1 cells [2] = test: Protection of normal human fibroblasts from paclitaxel cytotoxicity; type: cell-based; settings: HFL-1 cells pretreated with 2.0 μM for 8 hours, then paclitaxel (250 μM); viable cells 96 hours after paclitaxel
Procedure: FIG. 3 is a graph of the effect of paclitaxel on HFL-1 cells which were either pre-treated with (E)-4-fluorostyryl-4-chlorobenzylsulfone and then exposed to paclitaxel, or treated simultaneously with both agents. Cells were enumerated 96 hours after exposure to paclitaxel.
HFL-1 cells were plated at a cell density of 1.0×10^5 per well 24 hours prior to drug addition. Cells were pretreated with (E)-4-fluorostyryl-4-chlorobenzylsulfone (2.0 μM) for 8 hours and then exposed to paclitaxel (250 μM). Other cells were treated with paclitaxel alone, or both agents simultaneously. Cells were enumerated by Trypan blue exclusion using a hematocytometer 96 hours after exposure to paclitaxel. The ordinate in FIG. 3 represents the number of viable cells following treatment with (E)-4-fluorostyryl-4-chlorobenzylsulfone and paclitaxel, divided by the number of viable cells remaining after treatment with paclitaxel alone.

HFL-1 cells [3] = test: Protection of normal human fibroblasts from anticancer agent cytotoxicity (Protection Ratio); type: cell-based; settings: 2.0 μM sulfone 24 hour preincubation, then cisplatin 5.0 μM; viable cells at 96 hours
Procedure: HFL-1 cells were plated at a cell density of 1.0×10^5 in 1 ml of medium. Twenty-four hours following plating, 2.0 μM of (E)-4-fluorostyryl-4-chlorobenzylsulfone was added to the medium. Following a 24 hour preincubation with the styryl sulfone, the various cytotoxic agents listed in Table 6 were added to the cells, at the concentrations given in Table 6. the number of viable cells was determined by Trypan blue exclusion using a hematocytometer 96 hours after exposure to cytotoxic agent. The “Protection Ratio” is the number of viable cells following treatment with (E)-4-fluorostyryl-4-chlorobenzylsulfone and cytotoxic agent, divided by the number of viable cells remaining after treatment with cytotoxic agent alone. A protection ratio of 2 or more is considered highly significant, while is protection ratio of 1.5-2 is considered less significant.

HFL-1 cells [4] = test: Protection of normal human fibroblasts from vincristine cytotoxicity; type: cell-based; settings: 2.0 μM sulfone 24 hours before vincristine, viability 96 hours after vincristine
Procedure: Normal HFL cells were treated with 0 to 0.250 nM vincristine and 2.0 μM (E)-4-fluorostyryl-4-chlorobenzylsulfone as indicated. Cell viability was assessed 96 hours after vincristine was added. “V”, vincristine alone; “A→V”, styryl sulfone followed by vincristine 24 hours later; “A+V”, simultaneous styryl sulfone and vincristine treatment; “V→A”, vincristine followed by styryl sulfone 24 hours later.
HFL-1 cells were treated with […] vincristine and, optionally, 2.0 μM (E)-4-fluorostyryl-4-chlorobenzylsulfone either 24 hours before or after vincristine treatment, or simultaneously with vincristine treatment. Cell viability was assessed 96 hours after the addition of vincristine. The results are shown in FIG. 4: “V”, vincristine alone; “A→V”, styryl sulfone followed by vincristine 24 hours later; “A+V”, simultaneous styryl sulfone and vincristine treatment; “V→A”, vincristine followed by styryl sulfone 24 hours later.

ICR female mice = test: Protection of mice from paclitaxel toxicity (mortality); type: in vivo; settings: 50 mg/Kg i.p. pre-treatment before 150 mg/kg paclitaxel i.p.; mortality at 48 and 144 hours
Procedure: The styryl sulfone was given 24 hours before paclitaxel, 4 hours before paclitaxel, or simultaneously with paclitaxel. Control animals received paclitaxel alone or styryl sulfone alone. Mortality was assessed 48 after paclitaxel injection.
FIG. 6 is similar to FIG. 5, except that mortality was assessed 144 hours post paclitaxel administration.
ICR female mice age 10-12 weeks (Taconic) were divided into the following treatment groups and received intraperitoneal injections of 50 mg/Kg (E)-4-fluorostyryl-4-chlorobenzylsulfone dissolved in DMSO and/or 150 mg/kg paclitaxel (Taxol, Sigma Chemical Co.) dissolved in DMSO. The styryl sulfone was given 24 hours before paclitaxel, 4 hours before paclitaxel, or simultaneously with paclitaxel. Control animals received paclitaxel alone or styryl sulfone alone. Mortality was assessed 48 and 144 hours after paclitaxel injection. The results are shown in FIG. 5 (48 hours post paclitaxel administration) and FIG. 6 (144 hours post paclitaxel administration). Paclitaxel toxicity in mice is abrogated by pre-treatment with (E)-4-fluorostyryl-4-chlorobenzylsulfone.

Normal human HFL-1 cells = test: Cytoprotection assay against paclitaxel; type: cell-based; set-up: key: +: A compound was deemed to be active if the number of viable cells following the combination treatment was higher than the number of cells after treatment with paclitaxel alone; settings: 2.0 or 10 μM sulfone, paclitaxel 250 nM at time zero or 24 hours later, viable cells after 96 hours of paclitaxel
Procedure: The cytoprotective activity of the same Istyryl benzylsulfones was determined as follows. Normal human HFL-1 cells were plated at a cell density of 1.0×10^5 cells per well in six culture plates. Styryl benzylsulfone was added 24 hours later at a final concentration of either 2.0 or 10 μM. The time of styryl sulfone addition was designated as time zero. Paclitaxel (250 nM) was added at either time zero, or 24 hours after time zero. The total number of viable cells was determined, as described above, after 96 hours of paclitaxel treatment. A compound was deemed to be active if the number of viable cells following the combination treatment was higher than the number of cells after treatment with paclitaxel alone.

Compound	Cytoprotection (Normal human HFL-1 cells)	other results
O=S(=O)(/C=C/c1ccc(F)cc1)Cc1ccc(Cl)cc1 [Example 7, (E)-4-fluorostyryl-4-chlorobenzyl sulfone]	+	replication rate (cell count) (HFL-1 cells [1]): transiently reduced replication rates; protection from the toxic effects of paclitaxel (HFL-1 cells [2]): conferred protection from the toxic effects of paclitaxel; Protection Ratio (HFL-1 cells [3]): 1.3; protection from the toxic effects of vincristine (HFL-1 cells [4]): conferred protection from the toxic effects of vincristine; also recorded: Vincristine toxicity is abrogated; paclitaxel toxicity in mice (mortality) (ICR female mice): abrogated
O=S(=O)(/C=C/c1ccc(Cl)cc1)Cc1ccc(Cl)cc1 [Example 8, (E)-4-chlorostyryl-4-chlorobenzyl sulfone]	+	
O=S(=O)(/C=C/c1ccc(F)cc1Cl)Cc1ccc(Cl)cc1 [Example 9, (E)-2-chloro-4-fluorostyryl-4-chlorobenzyl sulfone]	+	
O=C(O)c1ccc(/C=C/S(=O)(=O)Cc2ccc(Cl)cc2)cc1 [Example 10, (E)-4-carboxystyryl-4-chlorobenzyl sulfone]	+	
O=S(=O)(/C=C/c1ccc(F)cc1)Cc1ccc(Cl)cc1Cl [Example 11, (E)-4-fluorostyryl-2,4-dichlorobenzyl sulfone]	+	
